Measured values taken from patent US12187742B2 (XRAD Therapeutics, Inc., priority 2018, dated 2025).
pIC50: −log10 of the molar value. Structures can show the parent of a compound that is named as a salt.

The compounds below were run against ATM (Homo sapiens (Human), UniProt Q13315) (assay: ATM in Cell Western Assay (pKAP1 in etoposide-treated MCF-7 cells)). Settings: pKAP1 in etoposide-treated MCF-7 cells.
Format: cell-based
Procedure, shortened: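 After paraformaldehyde fixation and Triton X-100 permeabilization, immunostained plates were read by infrared scanning (ODYSSEY CLx). Compound was given as 10 doses, 3-fold dilutions from a 1 μM final top concentration.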

ATM, sequence (Q13315 whole entry): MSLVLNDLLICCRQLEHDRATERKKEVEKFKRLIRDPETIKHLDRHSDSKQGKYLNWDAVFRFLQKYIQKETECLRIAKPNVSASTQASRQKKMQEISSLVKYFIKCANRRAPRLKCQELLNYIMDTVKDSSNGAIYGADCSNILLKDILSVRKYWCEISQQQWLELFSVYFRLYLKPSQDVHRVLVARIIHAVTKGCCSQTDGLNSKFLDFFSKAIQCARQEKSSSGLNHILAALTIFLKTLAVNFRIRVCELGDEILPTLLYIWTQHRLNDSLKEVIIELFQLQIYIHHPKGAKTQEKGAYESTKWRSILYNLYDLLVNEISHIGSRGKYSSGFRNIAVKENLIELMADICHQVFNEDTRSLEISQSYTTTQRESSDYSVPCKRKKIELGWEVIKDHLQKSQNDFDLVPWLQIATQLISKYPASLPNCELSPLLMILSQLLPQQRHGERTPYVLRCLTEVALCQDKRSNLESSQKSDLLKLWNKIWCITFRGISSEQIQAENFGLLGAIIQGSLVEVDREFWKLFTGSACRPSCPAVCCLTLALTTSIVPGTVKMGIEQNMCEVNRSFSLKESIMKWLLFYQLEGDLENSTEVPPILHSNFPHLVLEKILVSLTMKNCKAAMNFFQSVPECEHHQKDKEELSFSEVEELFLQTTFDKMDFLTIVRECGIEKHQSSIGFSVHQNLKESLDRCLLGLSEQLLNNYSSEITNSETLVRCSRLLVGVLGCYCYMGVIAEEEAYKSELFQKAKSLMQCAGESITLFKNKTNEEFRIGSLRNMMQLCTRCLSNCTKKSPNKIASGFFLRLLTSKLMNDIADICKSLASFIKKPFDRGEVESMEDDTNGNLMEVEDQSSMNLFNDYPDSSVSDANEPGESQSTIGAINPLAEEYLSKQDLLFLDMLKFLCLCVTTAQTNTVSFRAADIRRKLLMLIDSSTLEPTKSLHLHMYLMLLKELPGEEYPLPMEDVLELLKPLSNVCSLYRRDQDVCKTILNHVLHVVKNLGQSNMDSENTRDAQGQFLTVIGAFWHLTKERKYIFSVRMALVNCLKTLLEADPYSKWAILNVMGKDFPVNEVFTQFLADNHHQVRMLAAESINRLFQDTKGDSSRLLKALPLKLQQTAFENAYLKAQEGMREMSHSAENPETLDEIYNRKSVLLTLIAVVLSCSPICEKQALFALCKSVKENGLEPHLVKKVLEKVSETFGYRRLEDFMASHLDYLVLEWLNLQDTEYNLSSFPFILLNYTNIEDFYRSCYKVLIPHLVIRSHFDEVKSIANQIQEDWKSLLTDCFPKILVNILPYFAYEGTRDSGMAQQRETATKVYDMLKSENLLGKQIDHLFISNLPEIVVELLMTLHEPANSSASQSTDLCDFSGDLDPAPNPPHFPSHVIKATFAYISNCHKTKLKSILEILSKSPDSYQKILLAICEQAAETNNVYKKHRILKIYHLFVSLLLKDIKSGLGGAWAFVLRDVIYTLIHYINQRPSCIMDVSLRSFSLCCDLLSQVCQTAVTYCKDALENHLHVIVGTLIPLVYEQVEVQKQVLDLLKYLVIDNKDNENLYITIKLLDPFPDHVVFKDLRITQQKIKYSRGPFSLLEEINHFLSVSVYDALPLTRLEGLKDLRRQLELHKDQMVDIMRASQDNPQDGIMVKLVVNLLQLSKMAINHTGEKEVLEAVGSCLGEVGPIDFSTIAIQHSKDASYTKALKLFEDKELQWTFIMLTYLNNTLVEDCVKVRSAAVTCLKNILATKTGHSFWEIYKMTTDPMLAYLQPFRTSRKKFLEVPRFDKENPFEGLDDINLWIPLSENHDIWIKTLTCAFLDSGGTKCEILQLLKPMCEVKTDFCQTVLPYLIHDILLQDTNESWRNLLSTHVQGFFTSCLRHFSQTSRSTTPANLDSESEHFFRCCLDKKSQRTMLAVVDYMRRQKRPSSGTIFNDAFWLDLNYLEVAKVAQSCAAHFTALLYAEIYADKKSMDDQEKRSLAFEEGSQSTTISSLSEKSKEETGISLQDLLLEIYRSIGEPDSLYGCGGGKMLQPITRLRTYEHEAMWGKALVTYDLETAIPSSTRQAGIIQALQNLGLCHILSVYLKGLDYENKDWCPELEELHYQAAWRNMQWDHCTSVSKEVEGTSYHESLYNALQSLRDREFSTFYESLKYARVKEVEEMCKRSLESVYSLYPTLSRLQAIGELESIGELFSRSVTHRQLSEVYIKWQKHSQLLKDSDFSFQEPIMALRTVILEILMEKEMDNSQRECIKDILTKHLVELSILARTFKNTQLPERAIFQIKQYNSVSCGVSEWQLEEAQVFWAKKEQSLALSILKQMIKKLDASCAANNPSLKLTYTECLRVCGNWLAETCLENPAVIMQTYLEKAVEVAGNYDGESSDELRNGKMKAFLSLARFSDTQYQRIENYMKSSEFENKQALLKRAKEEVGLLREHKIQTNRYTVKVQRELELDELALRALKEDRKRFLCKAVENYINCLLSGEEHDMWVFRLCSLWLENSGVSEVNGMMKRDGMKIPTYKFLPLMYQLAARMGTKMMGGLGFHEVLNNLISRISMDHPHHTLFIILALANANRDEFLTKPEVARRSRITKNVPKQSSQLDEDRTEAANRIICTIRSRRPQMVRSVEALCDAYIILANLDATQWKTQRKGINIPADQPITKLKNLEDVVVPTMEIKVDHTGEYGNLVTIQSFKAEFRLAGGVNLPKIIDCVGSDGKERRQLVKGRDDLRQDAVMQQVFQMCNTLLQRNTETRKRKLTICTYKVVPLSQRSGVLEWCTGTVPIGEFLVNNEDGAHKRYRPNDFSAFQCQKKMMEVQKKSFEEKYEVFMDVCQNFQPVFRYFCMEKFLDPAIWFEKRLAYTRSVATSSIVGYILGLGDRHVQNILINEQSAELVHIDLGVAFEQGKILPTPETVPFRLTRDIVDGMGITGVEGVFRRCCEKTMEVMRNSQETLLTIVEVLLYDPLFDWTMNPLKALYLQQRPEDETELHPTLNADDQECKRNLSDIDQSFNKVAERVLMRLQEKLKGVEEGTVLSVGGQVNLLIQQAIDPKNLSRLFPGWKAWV

pIC50 | SMILES
< 7.00 | CN1C(=O)C2(CCC2)c2c1cnc1ccc(-c3cnc(N4CC5CC(C4)N5)c(NS(C)(=O)=O)c3)cc21 [Example 360, N-(2-(3,6-Diazabicyclo[3.1.1]heptan-3-yl)-5-(3′-methyl-2′-oxo-2′,3′-dihydrospiro[cyclobutane-1,1′-pyrrolo[2,3-c]quinolin]-8′-yl)pyridin-3-yl) methanesulfonamide formate]
< 7.00 | CN1C(=O)C2(CCC2)c2c1cnc1ccc(-c3cnc(N4CC5CC(C4)N5C)c(NS(C)(=O)=O)c3)cc21 [Example 361, N-(5-(3′-Methyl-2′-oxo-2′,3′-dihydrospiro[cyclobutane-1,1′-pyrrolo[2,3-c]quinolin]-8′-yl)-2-(6-methyl-3,6-diazabicyclo[3.1.1]heptan-3-yl)pyridin-3-yl)methanesulfonamide formate]
7.00 to 9.00 | CN(C)CCCN(C)c1ncc(-c2ccc3ncc4c(c3c2)C2(CCC2)C(=O)N4C)cc1NS(C)(=O)=O [Example 362, N-(2-((3-(Dimethylamino)propyl)(methyl)amino)-5-(3′-methyl-2′-oxo-2′,3′-dihydrospiro[cyclobutane-1,1′-pyrrolo[2,3-c]quinolin]-8′-yl)pyridin-3-yl)methanesulfonamide hydrochloride]
< 7.00 | CN(C)CCN(C)c1ncc(-c2cc3c4c(cnc3cc2F)N(C)C(=O)C42CCC2)cc1NS(C)(=O)=O [Example 363, N-(2-((2-(Dimethylamino)ethyl)(methyl)amino)-5-(7′-fluoro-3′-methyl-2′-oxo-2′,3′-dihydrospiro[cyclobutane-1,1′-pyrrolo[2,3-c]quinolin]-8′-yl)pyridin-3-yl)methanesulfonamide hydrochloride]
< 7.00 | CN(C)c1ncc(-c2cc3c4c(cnc3cc2F)N(C)C(=O)C42CCC2)cn1 [Example 364, 8′-(2-(Dimethylamino)pyrimidin-5-yl)-7′-fluoro-3′-methylspiro[cyclobutane-1,1′-pyrrolo[2,3-c]quinolin]-2′(3′-H)-one]
< 7.00 | CC(C)NCCOc1ncc(-c2cc3c4c(cnc3cc2F)N(C)C(=O)C42CCC2)cc1NS(=O)(=O)C(F)F [Example 368, 1,1-Difluoro-N-(5-(7′-fluoro-3′-methyl-2′-oxo-2′,3′-dihydrospiro[cyclobutane-1,1′-pyrrolo[2,3-c]quinolin]-8′-yl)-2-(2-(isopropylamino)ethoxy)pyridin-3-yl)methanesulfonamide]
< 7.00 | CC(C)NCCOc1ncc(-c2cc3c4c(cnc3cc2F)N(C)C(=O)C42CCC2)cc1NS(=O)(=O)N1CC(C#N)C1 [Example 372, 3-Cyano-N-(5-(7′-fluoro-3′-methyl-2′-oxo-2′,3′-dihydrospiro[cyclobutane-1,1′-pyrrolo[2,3-c]quinolin]-8′-yl)-2-(2-(isopropylamino)ethoxy)pyridin-3-yl)azetidine-1-sulfonamide]
7.00 to 9.00 | CN1C(=O)C2(CCC2)c2c1cnc1cc(F)c(-c3cnc(OCCNC4CC4)c(NS(C)(=O)=O)c3)cc21 [Example 376, N-(2-(2-(Cyclopropylamino)ethoxy)-5-(7′-fluoro-3′-methyl-2′-oxo-2′,3′-dihydrospiro[cyclobutane-1,1′-pyrrolo[2,3-c]quinolin]-8′-yl)pyridin-3-yl)methanesulfonamide hydrochloride]
< 7.00 | CN1C(=O)C2(CCC2)c2c1cnc1cc(F)c(-c3cnc(OCCNC4CCC4)c(NS(C)(=O)=O)c3)cc21 [Example 377, N-(2-(2-(Cyclobutylamino)ethoxy)-5-(7′-fluoro-3′-methyl-2′-oxo-2′,3′-dihydrospiro[cyclobutane-1,1′-pyrrolo[2,3-c]quinolin]-8′-yl)pyridin-3-yl)methanesulfonamide]
< 7.00 | CN1C(=O)C2(CCC2)c2c1cnc1cc(F)c(-c3cnc(OCCNCC(F)(F)F)c(NS(C)(=O)=O)c3)cc21 [Example 378, N-(5-(7′-Fluoro-3′-methyl-2′-oxo-2′,3′-dihydrospiro [cyclobutane-1,1′-pyrrolo[2.3-c]quinolin]-8′-yl)-2-(2-((2,2,2-trifluoroethyl)amino)ethoxy)pyridin-3-yl) methanesulfonamide hydrochloride]
< 7.00 | CN1C(=O)C2(CCC2)c2c1cnc1cc(F)c(-c3cnc(OCCNCC(F)F)c(NS(C)(=O)=O)c3)cc21 [Example 379, N-(2-(2-((2,2-Difluoroethyl)amino)ethoxy)-5-(7fluoro-3′-methyl-2′-oxo-2′,3′-dihydrospiro[cyclobutane-1,1′-pyrrole[2,3-c]quinolin]-8′-yl)pyridin-3-yl) methanesulfonamide]
7.00 to 9.00 | CC(C)NCCOc1ncc(-c2cc3c(cc2F)ncc2c3[C@]3(C[C@H](O)C3)C(=O)N2C)cc1NS(C)(=O)=O [Example 381, cis-N-(5-(7′-Fluoro-3-hydroxy-3′-methyl-2′-oxo-2′,3′-dihydrospiro[cyclobutane-1,1′-pyrrolo[2,3-c]quinolin]-8′-yl)-2-(2-(isopropylamino)ethoxy)pyridin-3-yl)methanesulfonamide hydrochloride]
7.00 to 9.00 | CC(C)NCCOc1ncc(-c2cc3c(cc2F)ncc2c3[C@]3(C[C@@H](O)C3)C(=O)N2C)cc1NS(C)(=O)=O [Example 382, trans-N-(5-(7′-Fluoro-3-hydroxy-3′-methyl-2′-oxo-2′,3′-dihydrospiro[cyclobutane-1,1′-pyrrolo[2,3-c]quinolin]-8′-yl)-2-(2-(isopropylamino)ethoxy)pyridin-3-yl)methanesulfonamide]
7.00 to 9.00 | CO[C@H]1C[C@@]2(C1)C(=O)N(C)c1cnc3cc(F)c(-c4cnc(OCCNC(C)C)c(NS(C)(=O)=O)c4)cc3c12 [Example 386]
7.00 to 9.00 | CCO[C@H]1C[C@@]2(C1)C(=O)N(C)c1cnc3cc(F)c(-c4cnc(OCCNC(C)C)c(NS(C)(=O)=O)c4)cc3c12 [Example 394, trans-N-(5-(3-Ethoxy-7′-fluoro-3′-methyl-2′-oxo-2′,3′-dihydrospiro[cyclobutane-1,1′-pyrrolo[2,3-c]quinolin]-8′-yl)-2-(2-(isopropylamino)ethoxy)pyridin-3-yl)methanesulfonamide]
7.00 to 9.00 | CC(C)NCCOc1ncc(-c2cc3c(cc2F)ncc2c3[C@]3(C[C@@H](OC(C)C)C3)C(=O)N2C)cc1NS(C)(=O)=O [Example 396, trans-N-(5-(7′-Fluoro-3-isopropoxy-3′-methyl-2′-oxo-2′,3′-dihydrospiro[cyclobutane-1,1′-pyrrolo[2,3-c]quinolin]-8′-yl)-2-(2-(isopropylamino)ethoxy)pyridin-3-yl)methanesulfonamide]
< 7.00 | CC(C)NCCOc1ncc(-c2cc3c(cc2F)ncc2c3[C@]3(C[C@@H](OC(C)c4ccccc4)C3)C(=O)N2C)cc1NS(C)(=O)=O (stereo partly drawn) [Example 398, trans-N-(5-(7′-Fluoro-3′-methyl-2′-oxo-3-(1-phenylethoxy)-2′,3′-dihydrospiro[cyclobutane-1,1′-pyrrolo[2,3-c]quinolin]-8′-yl)-2-(2-(isopropylamino)ethoxy)pyridin-3-yl)methanesulfonamide]
< 7.00 | CN(C)CCCOc1c(NS(C)(=O)=O)cc(-c2ccc3ncc4c(c3c2)C2(CCC2)C(=O)N4C)cc1C(=O)O [Example 399, 2-(3-(Dimethylamino)propoxy)-5-(3′-methyl-2′-oxo-2′,3′-dihydrospiro[cyclobutane-1,1′-pyrrolo[2,3-c]quinolin]-8′-yl)-3-(methylsulfonamido)benzoic acid]
7.00 to 9.00 | CC(C)NCCOc1ncc(-c2cc3c(cc2F)ncc2c3[C@]3(C[C@@H](Oc4ccccc4)C3)C(=O)N2C)cc1NS(C)(=O)=O [Example 401, trans-N-(5-(7′-Fluoro-3′-methyl-2′-oxo-3-phenoxy-2′,3′-dihydrospiro[cyclobutane-1,1′-pyrrolo[2,3-c]quinolin]-8′-yl)-2-(2-(isopropylamino)ethoxy)pyridin-3-yl)methanesulfonamide]
< 7.00 | CC(C)NCCOc1ncc(-c2cc3c(cc2F)ncc2c3[C@]3(C[C@@H](Oc4ccccc4)C3)C(=O)N2C)cc1NS(=O)(=O)N(C)C [Example 403, trans-S′-{5-[(Dimethylsulfamoyl)amino]-6-{2-[(propan-2-ylamino]ethoxy}pyridine-3-yl}-7′-fluoro-3′-methyl-3-phenoxy-2′,3′-dihydrospiro[cyclobutane-1,1′-pyrrolo[2,3-c]quinoline]-2′-one hydrochloride]
7.00 to 9.00 | COC[C@H]1C[C@@]2(C1)C(=O)N(C)c1cnc3cc(F)c(-c4cnc(OCCNC(C)C)c(NS(C)(=O)=O)c4)cc3c12 [Example 405, trans-N-(5-(7′-Fluoro-3-(methoxymethyl)-3′-methyl-2′-oxo-2′,3′-dihydrospiro[cyclobutane-1,1′-pyrrolo[2,3-c]quinolin]-8′-yl)-2-(2-(isopropylamino)ethoxy)pyridin-3-yl)methanesulfonamide]
7.00 to 9.00 | CCOC[C@H]1C[C@@]2(C1)C(=O)N(C)c1cnc3cc(F)c(-c4cnc(OCCNC(C)C)c(NS(C)(=O)=O)c4)cc3c12 [Example 407, trans-N-(5-(3-(Ethoxymethyl)-7′-fluoro-3′-methyl-2′-oxo-2′,3′-dihydrospiro[cyclobutane-1,1′-pyrrolo[2,3-c]quinolin]-8′-yl)-2-(2-(isopropylamino)ethoxy)pyridin-3-yl)methanesulfonamide]

SMILES | pIC50
CC(C)NCCOc1ncc(-c2cc3c4c(cnc3cc2F)N(C)C(=O)C42CCC2)cc1NS(=O)(=O)CC#N [Example 374, 1-Cyano-N′-(5-(7′-fluoro-3′-methyl-2′-oxo-2′,3′-dihydrospiro[cyclobutane-1,1′-pyrrolo[2,3-c]quinolin]-8′-yl)-2-(2-(isopropylamino)ethoxy)pyridin-3-yl) methanesulfonamide hydrochloride] | 7.00 to 9.00
CN1C(=O)C2(CCC2)c2c1cnc1cc(F)c(-c3cnc(OCCNCCF)c(NS(C)(=O)=O)c3)cc21 [Example 380, N-(5-(7′-Fluoro-3′-methyl-2′-oxo-2′,3′-dihydrospiro [cyclobutane-1,1′-pyrrolo[2.3-c]quinolin]-8′-yl)-2-(2-((2-fluoroethyl)amino)ethoxy)pyridin-3-yl) methanesulfonamide hydrochloride] | 7.00 to 9.00
